Data from patent publication US8853264B2, “Use of lignan compounds for treating or preventing inflammatory disease” (Newtree Industry Co., Ltd., priority 2005, dated 2014).

Assays:
[1] = system: glycoprotein (mucin); test: Glycoprotein level in BAL fluid (ELISA), asthma model; format: in vivo, C57BL/6 (B6) male mice; conditions: oral 400 μg/g and 800 μg/g
Description: (§1) 5 μL of allergen, AP (aspergillus protease, 1 mg/mL, Sigma-Aldrich, St. Louis, Mo.) was mixed with 45 μL of OVA (chicken egg ovalbumin, 0.5 mg/mL, Sigma-Aldrich). After 3 intraperitoneal injections with 4-day intervals, asthma was induced by 2 intranasal challenges with 4-day interval. The intranasal challenge was performed under isoflurane inhalational anesthesia. Macelignan dissolved in corn oil was orally administered every day.
(§2) Within 24 hours after the last allergen challenge, the mouse was anesthetized by intraperitoneal injection of 0.1 mg/g sodium pentobarbital. After tracheal intubation, flexiVent (Scireq®, Montreal, Canada) was connected to maintain stable ventilation. Thereafter, striated muscle was relaxed by intravenous (IV) administration of 0.08 mg/kg pancuronium (Sigma-Aldrich). […]
When asthma is induced, secretion of mucin increases in the airway. Glycoprotein ELISA was carried out to quantitate mucin in BAL fluid. […] After blocking, followed by treating with biotinylated jacalin and then with streptavidin-alkaline phosphatase, substrate was added and absorbance was measured at 405 nm Glycoprotein level in the BAL fluid was determined by comparing with the standard curve obtained using the standard solution.

[2] = system: IL-13 mRNA; test: IL-13 mRNA level in skin lesion (RT-PCR); format: in vivo, NC/Nga mice
Description: In order to induce atopic dermatitis, 100 mg of mite antigen cream was applied on the ear, occipital region and back of NC/Nga mouse (9 to 11 weeks old), except for the negative control group, 3 times a week, 2 hours after the application of 4% SDS solution. Three weeks later, it was observed whether atopic dermatitis was induced by checking skin rash, erythema, cornification, or the like. Atopic dermatitis was induced in all groups except for the negative control group. […] Transepidermal water loss (TEWL), skin hydration and erythema index were measured one day before the end of the test. […]
After the end of the experiment, skin tissue was isolated from the occipital region to the back of the mouse, immersed in liquid nitrogen, pulverized using a mortar, dissolved in 500 μL of TRIzol® (InvitrogenLife Technologies, USA), and then homogenized using a homogenizer in order to measure mRNA level of cytokines in skin lesion. […] After the centrifuge, the supernatant was discarded and the remaining pellets were washed 2 times with 100% ethanol, dried, and then subjected to RNA quantification by spectrophotometry. […]

[3] = Airway hypersensitivity test, allergen-induced asthma; format: in vivo, C57BL/6 (B6) male mice; conditions: oral administration in corn oil, every day; vs vehicle group; p<0.05
Description: as §1
as §2, with “(Sigma-Aldrich). Following airway hypersensitivity test by IV administration of acetylcholine (Sigma-Aldrich), 1 mL of DPBS (Dulbecco's phosphate buffered saline) was injected twice into the intubation tube using a syringe for bronchioalveolar lavage.” for “(Sigma-Aldrich).”
For airway hypersensitivity test, the mouse was anesthetized using sodium pentobarbital and, after tracheal intubation, flexiVent was connected to maintain stable ventilation. […] Immediately after IV administration of acetylcholine, airway resistance was measured 3 times by snapshot. The mean value was recorded as airway resistance.

[4] = system: IL-4 secreting cells; test: Counting of IL-4 secreting cells in the lungs (ELISpot), asthma model; format: in vivo, C57BL/6 (B6) male mice; conditions: oral 400 μg/g and 800 μg/g; vs vehicle (corn oil) group
Description: as §1
Within 24 hours after the last allergen challenge, the mouse was anesthetized by intraperitoneal injection of 0.1 mg/g sodium pentobarbital. After tracheal intubation, flexiVent (Scireq®, Montreal, Canada) was connected to maintain stable ventilation. Thereafter, striated muscle was relaxed by intravenous (IV) administration of 0.08 mg/kg pancuronium (Sigma-Aldrich). Following airway hypersensitivity test by IV administration of acetylcholine (Sigma-Aldrich), 1 mL of DPBS (Dulbecco's phosphate buffered saline) was injected twice into the intubation tube using a syringe for bronchioalveolar lavage. Thereafter, the chest was opened and the lungs were subjected to ELISpot assay. […]
When asthma is induced in a mouse, Th2 cells in the lungs increase. […] After addition of substrate dissolved in 0.6% low melting agarose followed by incubation at 4° C., spots were counted within 24 hours to count the number of IL-4 secreting cells in the lungs.

SMILES: COc1cc(C[C@H](C)[C@H](C)Cc2ccc3c(c2)OCO3)ccc1O (single isomer, unassigned) [macelignan]
- glycoprotein level in the BAL fluid [1]: decreased glycoprotein level
- IL-13 mRNA level in skin lesion ([2]; oral administration 50 and 150 mg/kg): statistically significant effect of decreasing IL-13 mRNA level
- IL-13 mRNA level in skin lesion ([2]; topical application 20 and 60 mg/kg): effect of decreasing IL-13 mRNA level
- airway hypersensitivity [3]: statistically significant decrease of airway hypersensitivity
- IL-4 secreting cells in the lungs [4]: decreased IL-4 secreting cells
